Test results as given in article PMC10878397, “Development of Potent Dual BET/HDAC Inhibitors via Pharmacophore Merging and Structure-Guided Optimization” (ACS Chemical Biology, 2024).
“And” between values parts separate entries of the source, which are not always exact repeats. Equal entries are not always repeated. Where two headings read alike, the source gives them in different places.

Assays:
PaTu8988T cells = test: CellTiter-Glo cell viability assay; assay type: cell-based; conditions: Homo sapiens, PaTu 8988t, 72 h; treatment for 3 days
Procedure: (§1) PDAC cell line PaTu8988T was obtained from ATCC and cultured in Dulbecco’s modified Eagle’s medium (DMEM) containing 10% FBS, 25 mM glucose, […], 1 mM sodium pyruvate, and 1% penicillin–streptomycin. Nut midline carcinoma cell line HCC2429 was kindly provided by Lead Discovery Center GmbH (Dortmund, Germany) and was cultured in RPMI1640 medium containing 10% FBS, 2 mM L-glutamine, and 1% penicillin–streptomycin. Cell line PaTu8988T was authenticated using the Multiplex human Cell line Authentication Test (MCA) by Multiplexion GmbH, and cell line HCC2429 was authenticated using short tandem repeat (STR) profiling.
(§2) The assays were performed using Promega’s CellTiter-Glo Luminescent Cell Viability Assay kit (Cat. #G7571). First, compounds dissolved in DMSO were printed in 96-well plates (Corning) by using a Tecan D300e digital dispenser. Then, cells were seeded into the compound-printed plates using a Thermo Multidrop reagent dispenser. 72 h later, one volume of diluted CellTiter-Glo reagent (1:4 dilution with PBS) was added to individual wells by using the Thermo Multidrop reagent dispenser again. Plates were shaken for 2 min and incubated for 10 min in the dark. Luminescent signals were read by using a Tecan Spark Multimode Microplate Reader. The values were normalized to the DMSO control wells and presented as a percentage of cell viability. Dose–response curves were drawn with GraphPad Prism 8.

HCC2429 cells = test: CellTiter-Glo cell viability assay; assay type: cell-based; conditions: Homo sapiens, HCC2429, 72 h; treatment for 3 days
Procedure: as §1, §2

HDAC1 = HDAC1 (Homo sapiens, UniProt Q13547); test: NanoBRET target engagement assay (HEK293T); assay type: cell-based; parameters: BRD4 bromodomains and full-length HDACs were obtained as plasmids cloned in-frame with a terminal NanoLuc fusion; host or cells: HEK293T
Procedure: (§3) The assay was performed as described previously.[17],[59] In brief, BRD4 bromodomains and full-length HDACs were obtained as plasmids cloned in-frame with a terminal NanoLuc fusion (Promega). Plasmids were transfected into HEK293T cells using FuGENE HD (Promega, E2312), and proteins were allowed to express for 20 h. […] The corresponding protein-transfected cells were added and reseeded at a density of 2 × 10^5 cells/mL after trypsinization and resuspended in Opti-MEM without phenol red (Life Technologies). The system was allowed to equilibrate for 2 h at 37 °C/5% CO2 prior to BRET measurements. […] For lysed-mode NanoBRET experiments, digitonin (Promega, #G9441) was added as per the manufacturer’s instructions to a final concentration of […].

HDAC3 = HDAC3 (Homo sapiens, UniProt O15379); test: NanoBRET target engagement assay (HEK293T); assay type: cell-based; parameters: BRD4 bromodomains and full-length HDACs were obtained as plasmids cloned in-frame with a terminal NanoLuc fusion; host or cells: HEK293T; conditions: intact cells
Procedure: as §3

HDAC2 = HDAC2 (Homo sapiens, UniProt Q92769); test: NanoBRET target engagement assay (HEK293T); assay type: cell-based; parameters: BRD4 bromodomains and full-length HDACs were obtained as plasmids cloned in-frame with a terminal NanoLuc fusion; host or cells: HEK293T
Procedure: as §3

BRD4 BD1 = BRD4 BD1 (Homo sapiens, UniProt O60885); test: DSF thermal shift assay; assay type: binding; parameters: purchased in-house (SGC Frankfurt recombinant bromodomain DSF panel); conditions: for Mean Tm BRD4 (1), bromodomain panel: selectivity panel, technical triplicates
Procedure: (§4) The effects of inhibitor binding on the apparent melting temperature of recombinant bromodomains were determined by DSF in a 96-well plate (Starlab) at a protein concentration of 2 μM with 10 μΜ compound in buffer containing 25 mM HEPES, pH 7.5, 150 mM NaCl, and 0.5 mM TCEP. […] Protein unfolding profiles were recorded using an MX3005P real-time qPCR instrument (Agilent; excitation/emission filters = 492/610 nm) while increasing the temperature from 25 to 95 °C at a heating rate of 3 °C/min. Tm values were calculated after fitting the fluorescence curves to the Boltzmann equation. Differences in melting temperature upon compound binding are given as ΔTm = Tm (protein with inhibitor) – Tm (protein with DMSO control). Measurements were performed in triplicates.

BRD4 BD2 = BRD4 BD2 (Homo sapiens, UniProt O60885); test: DSF thermal shift assay; assay type: binding; parameters: purchased in-house (SGC Frankfurt recombinant bromodomain DSF panel); conditions: for Mean Tm BRD4 (2), bromodomain panel: selectivity panel, technical triplicates
Procedure: as §4

[1] = tested on: histone H3 K9/K14 acetylation in PaTu8988T cells; test: Western blot of histone H3 K9/K14 acetylation; assay type: cell-based; conditions: 48 h, 1 μM inhibitor or concentration series
Procedure: Protein samples were prepared in RIPA buffer (9806S, Cell Signaling Technology) containing a protease inhibitor cocktail (Roche). Proteins were separated in SDS-polyacrylamide gels, transferred to nitrocellulose membranes with a Trans-Blot Turbo Transfer System (Bio-Rad), and incubated with antibodies dissolved in TBS buffer containing 5% BSA and 0.1% Tween20. The following primary antibodies were used: rabbit anti-β-actin (ab8227, Abcam) and rabbit antiacetyl-histone H3 (Lys9/Lys14; 9677, Cell Signaling Technology). Primary antibodies were recognized by a peroxidase-coupled secondary antibody (Jackson), and signals were detected by chemiluminescence.

HDAC1, sequence (Q13547 whole entry, the tested form may be a part): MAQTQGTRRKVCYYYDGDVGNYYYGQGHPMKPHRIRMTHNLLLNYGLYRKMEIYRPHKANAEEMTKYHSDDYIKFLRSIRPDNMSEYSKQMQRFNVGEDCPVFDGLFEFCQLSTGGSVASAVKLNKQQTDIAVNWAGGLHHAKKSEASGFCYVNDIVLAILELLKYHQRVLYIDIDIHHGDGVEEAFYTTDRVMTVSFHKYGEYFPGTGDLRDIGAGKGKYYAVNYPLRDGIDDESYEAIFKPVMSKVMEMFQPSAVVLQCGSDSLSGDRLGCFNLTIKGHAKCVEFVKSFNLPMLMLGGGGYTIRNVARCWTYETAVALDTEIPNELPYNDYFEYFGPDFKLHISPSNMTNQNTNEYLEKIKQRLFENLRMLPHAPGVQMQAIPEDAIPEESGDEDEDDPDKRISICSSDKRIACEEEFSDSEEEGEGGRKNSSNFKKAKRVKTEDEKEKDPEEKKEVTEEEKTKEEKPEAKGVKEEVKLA
HDAC3, sequence (O15379 whole entry, the tested form may be a part): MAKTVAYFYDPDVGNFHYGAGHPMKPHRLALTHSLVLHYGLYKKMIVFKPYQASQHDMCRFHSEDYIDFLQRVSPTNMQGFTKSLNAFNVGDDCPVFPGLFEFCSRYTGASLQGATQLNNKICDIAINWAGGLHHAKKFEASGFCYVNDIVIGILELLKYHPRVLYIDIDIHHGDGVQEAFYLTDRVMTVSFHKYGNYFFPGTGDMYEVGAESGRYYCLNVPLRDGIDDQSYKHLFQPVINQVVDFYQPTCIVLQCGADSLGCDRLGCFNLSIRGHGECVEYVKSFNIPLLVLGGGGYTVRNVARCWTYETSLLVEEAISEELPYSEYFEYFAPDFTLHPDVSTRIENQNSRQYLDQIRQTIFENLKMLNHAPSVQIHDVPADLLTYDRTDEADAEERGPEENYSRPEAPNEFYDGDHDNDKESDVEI
HDAC2, sequence (Q92769 whole entry, the tested form may be a part): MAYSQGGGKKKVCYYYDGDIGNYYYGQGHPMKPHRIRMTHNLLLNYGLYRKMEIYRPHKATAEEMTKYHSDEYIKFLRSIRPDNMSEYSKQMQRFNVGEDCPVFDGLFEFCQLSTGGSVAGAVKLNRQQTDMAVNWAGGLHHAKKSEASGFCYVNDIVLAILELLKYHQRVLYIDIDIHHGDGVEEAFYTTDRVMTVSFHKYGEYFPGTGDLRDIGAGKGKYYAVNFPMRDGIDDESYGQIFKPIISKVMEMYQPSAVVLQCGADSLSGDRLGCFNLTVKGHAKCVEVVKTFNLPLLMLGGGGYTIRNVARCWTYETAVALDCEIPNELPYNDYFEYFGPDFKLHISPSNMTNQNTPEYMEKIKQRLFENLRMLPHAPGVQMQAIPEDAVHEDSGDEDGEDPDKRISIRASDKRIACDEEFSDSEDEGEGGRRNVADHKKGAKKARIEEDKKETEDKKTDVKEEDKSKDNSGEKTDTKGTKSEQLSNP

Row | SMILES | IC50 (PaTu8988T cells) [µM] | IC50 (HCC2429 cells) [µM] | EC50 (HDAC1; intact cells) [µM] | EC50 (HDAC3) [µM] | EC50 (HDAC2; intact cells) | DSF ΔTm BRD4 BD1 (BRD4 BD1; 10 μM compound, 2 μM protein) [K] | ΔTm at 10 µM (BRD4 BD1; read-out: DSF ΔTm BRD4 BD1, 10 μM compound, 2 μM protein) [°C] | Mean Tm BRD4 (1), bromodomain panel (BRD4 BD1; 10 μM compound) [K] | DSF ΔTm BRD4 BD2 (BRD4 BD2; 10 μM compound, 2 μM protein) [K] | ΔTm at 10 µM (BRD4 BD2; read-out: DSF ΔTm BRD4 BD2, 10 μM compound, 2 μM protein) [°C] | Mean Tm BRD4 (2), bromodomain panel (BRD4 BD2; 10 μM compound) [K] | inhibition of histone H3 K9/K14 deacetylation (Western blot) [1] | ΔTm at 10 µM (BRD4 BD1; 10 μM compound, 2 μM protein, read-out: DSF ΔTm BRD4 BD1) [°C] | ΔTm at 10 µM (BRD4 BD2; 10 μM compound, 2 μM protein, read-out: DSF ΔTm BRD4 BD2) [°C] | EC50 (HDAC1; lysed-mode) [µM] | EC50 (HDAC2; lysed-mode) [µM]
1 | Cn1cc(-c2ccc(C(=O)Nc3ccccc3N)cc2)c2cc[nH]c2c1=O [NB462] | 2.7 ± 0.3 | 0.4 ± 0.03 | 2.6 ± 1.1 | 32 ± 16 | 1.6 ± 0.7 µM | 3.9 ± 0.4 | 4 to 5 | 3.6 ± 0.1 | 4.5 ± 0.1 | 4 to 5 | 4.6 ± 0.1 | significantly more potent than CI-944 | – | – | – | –
2 | Cn1cc(-c2ccc(C(=O)Nc3ccccc3N)nc2)c2cc[nH]c2c1=O [NB500] | 3.2 ± 0.4 | 0.22 ± 0.02 | 4.8 ± 2.3 | > 50 | 2.5 ± 0.7 µM | – | – | – | – | – | – | much less potent | 4.2 ± 0.4 | 4.7 ± 0.4 | – | –
3 | Cn1cc(-c2ccc(C(=O)Nc3cc(-c4ccccc4)ccc3N)cc2)c2cc[nH]c2c1=O [NB503] | 2.8 ± 0.2 | 0.63 ± 0.08 | 0.19 ± 0.03 | 6.5 ± 2.8 | 0.36 ± 0.12 µM | – | – | 5.5 ± 0.1 | – | – | 5.3 ± 0.2 | concentration-dependent | – | – | – | –
4 | Cn1cc(-c2ccc(C(=O)Nc3cc(-c4ccccc4)ccc3N)nc2)c2cc[nH]c2c1=O [NB512] | 3.6 ± 0.4 | 0.42 ± 0.05 | 0.11 ± 0.03 | 13.6 ± 4.8 | 0.098 µM and 0.1 µM | – | – | – | – | – | – | more potent inhibitor overall | – | – | 0.027 | 0.037
